What follows are compounds tested against T1, chimeric human H3 receptor (Homo sapiens, UniProt Q9Y5N1) (assay: Chimeric human H3 receptor GTP binding assay (agonist-stimulated GTP-gamma35S binding, Example 7)). Conditions: Table II "Ki", symbol *; assay of Example 7.
T1 construct: made in house; host or cells: Sf9 insect cells (baculovirus); P2 membrane preparation
Format: biochemical
How it was run: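 Sf9 membranes co-expressing chimeric human H3 receptor and heterotrimeric G-protein, 35 μg/tube, in pH 7.4 Tris buffer with 10 μM GDP. Test compounds (10^−10–10^−6 M) competed against 1 μM histamine, […] GTP-gamma35S, 60 min at room temperature. Filter-bound radioactivity counted; IC50 converted to Ki by Cheng-Prusoff. Agonism/inverse agonism tested without histamine (EC50).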

T1 sequence (Q9Y5N1 with tags, fused parts or gaps): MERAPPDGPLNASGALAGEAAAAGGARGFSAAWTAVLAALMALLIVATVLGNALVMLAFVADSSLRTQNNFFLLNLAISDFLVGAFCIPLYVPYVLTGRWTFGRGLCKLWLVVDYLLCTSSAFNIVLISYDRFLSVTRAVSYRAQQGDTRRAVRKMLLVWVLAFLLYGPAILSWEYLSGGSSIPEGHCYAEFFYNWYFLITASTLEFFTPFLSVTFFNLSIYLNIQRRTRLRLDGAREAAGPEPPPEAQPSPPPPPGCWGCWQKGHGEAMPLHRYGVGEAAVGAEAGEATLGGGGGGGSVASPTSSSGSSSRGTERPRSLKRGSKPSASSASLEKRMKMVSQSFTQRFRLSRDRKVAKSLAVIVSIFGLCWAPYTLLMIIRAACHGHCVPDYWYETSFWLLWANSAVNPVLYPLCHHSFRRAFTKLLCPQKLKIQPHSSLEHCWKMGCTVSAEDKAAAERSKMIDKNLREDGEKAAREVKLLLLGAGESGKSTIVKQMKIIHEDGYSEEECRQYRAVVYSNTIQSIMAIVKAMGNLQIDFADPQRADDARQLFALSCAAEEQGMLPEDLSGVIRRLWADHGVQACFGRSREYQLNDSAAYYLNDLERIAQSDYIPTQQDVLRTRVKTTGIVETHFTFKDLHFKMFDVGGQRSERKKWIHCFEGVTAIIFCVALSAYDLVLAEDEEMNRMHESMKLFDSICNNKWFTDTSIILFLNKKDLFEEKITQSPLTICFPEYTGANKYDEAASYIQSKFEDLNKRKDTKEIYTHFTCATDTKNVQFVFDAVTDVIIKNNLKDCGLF

Ki, < 1000 nM:
COc1ccc(-c2ccc3c(c2)CCN(CC(=O)N2CCN(C4CCC4)CC2)C3)cc1 [Compound 520, 2-[2-(4-cyclobutylpiperazin-1-yl)-2-oxoethyl]-6-(4-methoxyphenyl)-1,2,3,4-tetrahydroisoquinoline]
COc1ccc(-c2ccc3c(c2)CCN(CC(=O)N2CCN(C4CCCC4)CC2)C3)cc1F [Compound 503, 2-[2-(4-cyclopentylpiperazin-1-yl)-2-oxoethyl]-6-(3-fluoro-4-methoxyphenyl)-1,2,3,4-tetrahydroisoquinoline]
COc1ccc(-c2ccc3c(c2)CCN(CC(=O)N2CCN(C4CCCCC4)CC2)C3)cc1OC [Compound 526, 2-[2-(4-cyclohexylpiperazin-1-yl)-2-oxoethyl]-6-(3,4-dimethoxyphenyl)-1,2,3,4-tetrahydroisoquinoline]
COCCCNc1ccc2c(n1)CCN(CC(=O)N1CCN(C3CCC3)CC1)C2 [Compound 664, 6-[2-(4-cyclobutylpiperazin-1-yl)-2-oxoethyl]-N-(3-methoxypropyl)-5,6,7,8-tetrahydro-1,6-naphthyridin-2-amine]
COc1ccc(-c2ccc3c(c2)CCN(CC(=O)N2CCN(C4CCCC4)CC2)C3)cc1C [Compound 541, 2-[2-(4-cyclopentylpiperazin-1-yl)-2-oxoethyl]-6-(4-methoxy-3-methylphenyl)-1,2,3,4-tetrahydroisoquinoline]
COc1ccc(-c2ccc3c(c2)CCN(CC(=O)N2CCN(C4CCC4)CC2)C3)cc1F [Compound 502, 2-[2-(4-cyclobutylpiperazin-1-yl)-2-oxoethyl]-6-(3-fluoro-4-methoxyphenyl)-1,2,3,4-tetrahydroisoquinoline]

Same assay, conditions: Table II; "*" = Ki in assay of Example 7 less than 1 micromolar

Ki, < 1000 nM:
O=C(CN1CCc2nc(-n3cccc3)ccc2C1)N1CCN(C2CCC2)CC1 [Compound 227, 6-[2-(4-cyclobutylpiperazin-1-yl)-2-oxoethyl]-2-(1H-pyrrol-1-yl)-5,6,7,8-tetrahydro-1,6-naphthyridine]
O=C(CN1CCc2nc(OC3CCCC3)ccc2C1)N1CCN(C2CCC2)CC1 [Compound 185, 6-[2-(4-cyclobutylpiperazin-1-yl)-2-oxoethyl]-2-(cyclopentyloxy)-5,6,7,8-tetrahydro-1,6-naphthyridine]
O=C(CN1CCc2nn(-c3ccc(C(F)(F)F)cc3)cc2C1)N1CCN(C2CCC2)CC1 [Compound 237, 5-[2-(4-cyclobutylpiperazin-1-yl)-2-oxoethyl]-2-[4-(trifluoromethyl)phenyl]-4,5,6,7-tetrahydro-2H-pyrazolo[4,3-c]pyridine]
O=C(CN1CCc2nc(N3CCCC3)ccc2C1)N1CCN(C2CCC2)CC1 [Compound 176, 6-[2-(4-cyclobutylpiperazin-1-yl)-2-oxoethyl]-2-pyrrolidin-1-yl-5,6,7,8-tetrahydro-1,6-naphthyridine]

Same assay, conditions: Table II; assay of Example 7

Ki, < 1000 nM:
O=C(CN1CCc2nn(C3CCCC3)cc2C1)N1CCN(C2CCC2)CC1 [Compound 684, 5-[2-(4-cyclobutylpiperazin-1-yl)-2-oxoethyl]-2-cyclopentyl-4,5,6,7-tetrahydro-2H-pyrazolo[4,3-c] pyridine]

Same assay, conditions: assay of Example 7; "*" in Ki of Table II

Ki, < 1000 nM:
COc1ccc(-c2nc3c(s2)CN(CC(=O)N2CCN(C4CCC4)CC2)CC3)cc1OC [Compound 329, 5-[2-(4-cyclobutylpiperazin-1-yl)-2-oxoethyl]-2-(3,4-dimethoxyphenyl)-4,5,6,7-tetrahydro[1,3]thiazolo [5,4-c]pyridine]
COc1ccc(-c2nc3c(s2)CN(CC(=O)N2CCN(C4CCC4)CC2)CC3)cc1C [Compound 333, 5-[2-(4-cyclobutylpiperazin-1-yl)-2-oxoethyl]-2-(4-methoxy-3-methylphenyl)-4,5,6,7-tetrahydro[1,3]thiazolo [5,4-c]pyridine]
